Test results published in patent publication US20230265116A1, “DEGRADATION OF (EGFR) BY CONJUGATION OF EGFR INHIBITORS WITH E3 LIGASE LIGAND AND METHODS OF USE” (BEIGENE, LTD., priority 2020, published 2023).
Where two headings read alike, the source gives them in different places.

Columns and labels:
[1] = molecular target: T1, EGFR L858R/T790M/C797S (BaF3-LTC cells) (Homo sapiens, UniProt P00533, C797S/L858R/T790M); assay: EGFR degradation HTRF assay, BaF3-LTC cells; assay type: cell-based
T1 construct: expressed in transfected cells; host or cells: BaF3
T1 sequence (P00533 25-1210 T790M/C797S/L858R): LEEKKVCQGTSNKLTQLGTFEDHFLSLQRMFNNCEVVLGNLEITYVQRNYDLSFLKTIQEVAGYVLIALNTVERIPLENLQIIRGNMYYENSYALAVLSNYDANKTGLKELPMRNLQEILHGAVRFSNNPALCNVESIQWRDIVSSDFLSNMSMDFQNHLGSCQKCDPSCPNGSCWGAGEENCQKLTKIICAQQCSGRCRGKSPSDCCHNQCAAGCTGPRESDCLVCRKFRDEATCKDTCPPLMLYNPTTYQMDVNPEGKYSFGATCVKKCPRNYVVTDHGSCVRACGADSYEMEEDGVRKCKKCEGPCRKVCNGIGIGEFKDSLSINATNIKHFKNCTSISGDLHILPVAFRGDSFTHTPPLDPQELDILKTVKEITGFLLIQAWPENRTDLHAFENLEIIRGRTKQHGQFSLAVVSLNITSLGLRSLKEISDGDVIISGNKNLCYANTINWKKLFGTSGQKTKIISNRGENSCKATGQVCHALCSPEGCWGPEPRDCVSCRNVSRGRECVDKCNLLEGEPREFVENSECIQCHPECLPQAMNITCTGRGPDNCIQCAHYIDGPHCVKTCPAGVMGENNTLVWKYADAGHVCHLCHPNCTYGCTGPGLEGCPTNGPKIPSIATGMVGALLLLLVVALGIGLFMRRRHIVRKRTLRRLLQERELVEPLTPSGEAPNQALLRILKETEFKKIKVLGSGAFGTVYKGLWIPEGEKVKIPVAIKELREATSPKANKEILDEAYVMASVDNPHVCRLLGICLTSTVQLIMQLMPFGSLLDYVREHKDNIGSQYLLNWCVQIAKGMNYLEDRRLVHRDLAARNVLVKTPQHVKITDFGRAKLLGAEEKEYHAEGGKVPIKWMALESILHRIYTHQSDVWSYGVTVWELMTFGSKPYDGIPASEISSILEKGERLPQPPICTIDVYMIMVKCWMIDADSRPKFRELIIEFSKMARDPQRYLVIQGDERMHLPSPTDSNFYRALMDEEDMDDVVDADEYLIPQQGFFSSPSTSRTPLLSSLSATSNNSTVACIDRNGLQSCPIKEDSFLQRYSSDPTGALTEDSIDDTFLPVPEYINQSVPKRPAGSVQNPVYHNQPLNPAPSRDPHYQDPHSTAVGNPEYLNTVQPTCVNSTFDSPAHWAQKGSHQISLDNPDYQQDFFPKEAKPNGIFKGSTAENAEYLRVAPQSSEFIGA
Summary of the method: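 Cells treated 16 h at 37 °C, 5% CO2 in medium with 0.2% DMSO; top final concentration 10 uM, 5-fold dilution, 8 doses. Lysates read by HTRF (665/620 nm); degradation % versus DMSO high control, DC50 from four-parameter fit, Dmax as maximal degradation.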

[2] = tested on: EGFR Del19/T790M/C797S (H1975-clone #28); assay: EGFR degradation HTRF assay, H1975-clone #28 DTC cells; assay type: cell-based
Summary of the method: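 Cells were dosed on day 2 with an 8-point, 5-fold dilution series starting at 10 uM final and incubated 16h at 37° C. After lysis for 1 hour, HTRF antibodies were added overnight at room temperature and the plate was read at 665/620 nm. Degradation was normalised to DMSO wells and fitted for DC50 and Dmax.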

[3] = H1975 # 28 DTC cells; maximum percentage of inhibition (degradation)
[4] = BaF3-LTC cells; EGFR degradation, IC50 (DC50) from curve fit; read-out: DC50(nM) BaF3-LTC
[5] = BaF3-LTC cells; maximum percentage of inhibition (degradation); read-out: Dmax (%) BaF3-LTC
[6] = H1975 # 28 DTC cells; EGFR degradation, IC50 (DC50) from curve fit; read-out: DC50(nM) H1975 # 28 DTC

SMILES | DC50 ([1]; read-out: DC50(nM) BaF3-LTC; BaF3-LTC cells; EGFR degradation, IC50 (DC50) from curve fit) [nM] | Dmax ([1]; read-out: Dmax (%) BaF3-LTC, BaF3-LTC cells; maximum percentage of inhibition (degradation)) [%] | Dmax (%) H1975 # 28 DTC [2, 3] [%] | DC50 ([2]; read-out: DC50(nM) H1975 # 28 DTC; H1975 # 28 DTC cells; EGFR degradation, IC50 (DC50) from curve fit) [nM] | DC50 [1, 4] [nM] | Dmax [1, 5] [%] | DC50 [2, 6] [nM]
CCc1cc(Nc2ncc(Br)c(Nc3ccc4nc(C)ccc4c3P(C)(C)=O)n2)c(OC)cc1N1CCC(N2CCN(C(=O)C3CN(c4cccc5c4oc(=O)n5C4CCC(=O)NC4=O)C3)CC2)CC1 (stereo not shown) [Example 519, 3-(7-(3-(4-(1-(4-((5-bromo-4-((5-(dimethylphosphoryl)-2-methylquinolin-6-yl)amino)pyrimidin-2-yl)amino)-2-ethyl-5-methoxyphenyl)piperidin-4-yl)piperazine-1-carbonyl)azetidin-1-yl)-2-oxobenzo[d]oxazol-3(2H)-yl)piperidine-2,6-dione] | 1.19 | 92.1 | 74.38 | 0.378 | – | – | –
CCc1cc(Nc2ncc(Br)c(Nc3ccc4c(=O)n(C)ncc4c3P(C)(C)=O)n2)c(OC)cc1N1CCC(N2CCN(C(=O)C3CN(c4cc(F)c(C5CCC(=O)NC5=O)c(F)c4)C3)CC2)CC1 (stereo not shown) [Example 520, 3-(4-(3-(4-(1-(4-((5-bromo-4-((5-(dimethylphosphoryl)-2-methyl-1-oxo-1,2-dihydrophthalazin-6-yl)amino)pyrimidin-2-yl)amino)-2-ethyl-5-methoxyphenyl)piperidin-4-yl)piperazine-1-carbonyl)azetidin-1-yl)-2,6-difluorophenyl)piperidine-2,6-dione] | – | – | 73.99 | – | 5.66 | 90.1 | 0.769
CCc1cc(Nc2ncc(Br)c(Nc3ccc4c(=O)n(C5CC5)ncc4c3P(C)(C)=O)n2)c(OC)cc1N1CCC(N2CCN(CCc3ccc4c(c3)oc(=O)n4C3CCC(=O)NC3=O)CC2)CC1 (stereo not shown) [Example 522, 3-(6-(2-(4-(1-(4-((5-bromo-4-((2-cyclopropyl-5-(dimethylphosphoryl)-1-oxo-1,2-dihydrophthalazin-6-yl)amino)pyrimidin-2-yl)amino)-2-ethyl-5-methoxyphenyl)piperidin-4-yl)piperazin-1-yl)ethyl)-2-oxobenzo[d]oxazol-3(2H)-yl)piperidine-2,6-dione] | – | – | 75.25 | – | 1.43 | 95.3 | 0.611
CCc1cc(Nc2ncc(Br)c(Nc3ccc4c(=O)n(C)ncc4c3P(C)(C)=O)n2)c(OC)cc1N1CCC(N2CCN(CCc3ccc4c(c3)oc(=O)n4C3CCC(=O)NC3=O)CC2)CC1 (stereo not shown) [Example 523, 3-(6-(2-(4-(1-(4-((5-bromo-4-((5-(dimethylphosphoryl)-2-methyl-1-oxo-1,2-dihydrophthalazin-6-yl)amino)pyrimidin-2-yl)amino)-2-ethyl-5-methoxyphenyl)piperidin-4-yl)piperazin-1-yl)ethyl)-2-oxobenzo[d]oxazol-3(2H)-yl)piperidine-2,6-dione] | – | – | 72.16 | – | 1.97 | 95.9 | 0.571
CCc1cc(Nc2ncc(Br)c(Nc3ccc4nc(C)ccc4c3P(C)(C)=O)n2)c(OC)cc1N1CCC(N2CCN(C[C@H]3CCN(c4ccc5c(c4)oc(=O)n5C4CCC(=O)NC4=O)C3)CC2)CC1 (stereo partly drawn) [Example 525, 3-(6-((R)-3-((4-(1-(4-((5-bromo-4-((5-(dimethylphosphoryl)-2-methylquinolin-6-yl)amino)pyrimidin-2-yl)amino)-2-ethyl-5-methoxyphenyl)piperidin-4-yl)piperazin-1-yl)methyl)pyrrolidin-1-yl)-2-oxobenzo[d]oxazol-3(2H)-yl)piperidine-2,6-dione] | – | – | 50.86 | – | 2.6 | 94.3 | 0.691
COc1cc(N2CCC(N3CCN(C(=O)[C@@H]4CCN(c5cc(F)c([C@H]6CCC(=O)NC6=O)c(F)c5)C4)CC3)CC2)c(C)cc1Nc1ncc(Br)c(Nc2ccc3c(=O)n(C)ncc3c2P(C)(C)=O)n1 [Example 527, (R)-3-(4-((R)-3-(4-(1-(4-((5-bromo-4-((5-(dimethylphosphoryl)-2-methyl-1-oxo-1,2-dihydrophthalazin-6-yl)amino)pyrimidin-2-yl)amino)-5-methoxy-2-methylphenyl)piperidin-4-yl)piperazine-1-carbonyl)pyrrolidin-1-yl)-2,6-difluorophenyl)piperidine-2,6-dione] | – | – | 85.27 | – | 1.77 | 93.4 | 0.583
CCOc1cc(N2CCC(N3CCN(C(=O)[C@@H]4CCN(c5cc(F)c([C@H]6CCC(=O)NC6=O)c(F)c5)C4)CC3)CC2)c(C)cc1Nc1ncc(Br)c(Nc2ccc3c(=O)n(C)ncc3c2P(C)(C)=O)n1 [Example 529, (R)-3-(4-((R)-3-(4-(1-(4-((5-bromo-4-((5-(dimethylphosphoryl)-2-methyl-1-oxo-1,2-dihydrophthalazin-6-yl)amino)pyrimidin-2-yl)amino)-5-ethoxy-2-methylphenyl)piperidin-4-yl)piperazine-1-carbonyl)pyrrolidin-1-yl)-2,6-difluorophenyl)piperidine-2,6-dione] | – | – | 85.06 | – | 5.8 | 91.9 | 1.03
CCOc1cc(N2CCC(N3CCN(C(=O)[C@@H]4CCN(c5cc(F)c([C@H]6CCC(=O)NC6=O)c(F)c5)C4)CC3)CC2)c(CC)cc1Nc1ncc(Br)c(Nc2ccc3c(=O)n(C)ncc3c2P(C)(C)=O)n1 [Example 530, (R)-3-(4-((R)-3-(4-(1-(4-((5-bromo-4-((5-(dimethylphosphoryl)-2-methyl-1-oxo-1,2-dihydrophthalazin-6-yl)amino)pyrimidin-2-yl)amino)-5-ethoxy-2-ethylphenyl)piperidin-4-yl)piperazine-1-carbonyl)pyrrolidin-1-yl)-2,6-difluorophenyl)piperidine-2,6-dione] | – | – | 82.54 | – | 5.05 | 94.6 | 1.87
CCOc1cc(N2CCC(N3CCN(CC4CN(c5cc(F)c(C6CCC(=O)NC6=O)c(F)c5)C4)CC3)CC2)c(CC)cc1Nc1ncc(Br)c(Nc2ccc3c(=O)n(C)ncc3c2P(C)(C)=O)n1 (stereo not shown) [Example 535, 3-(4-(3-((4-(1-(4-((5-bromo-4-((5-(dimethylphosphoryl)-2-methyl-1-oxo-1,2-dihydrophthalazin-6-yl)amino)pyrimidin-2-yl)amino)-5-ethoxy-2-ethylphenyl)piperidin-4-yl)piperazin-1-yl)methyl)azetidin-1-yl)-2,6-difluorophenyl)piperidine-2,6-dione] | – | – | 82.79 | – | 9.87 | 93.8 | 1.13
CCc1cc(Nc2ncc(Br)c(Nc3cc(F)c4nc(C)ccc4c3P(C)(C)=O)n2)c(OC)cc1N1CCC(N2CCN(CCc3ccc4c(c3)oc(=O)n4C3CCC(=O)NC3=O)CC2)CC1 (stereo not shown) [Example 536, 3-(6-(2-(4-(1-(4-((5-bromo-4-((5-(dimethylphosphoryl)-8-fluoro-2-methylquinolin-6-yl)amino)pyrimidin-2-yl)amino)-2-ethyl-5-methoxyphenyl)piperidin-4-yl)piperazin-1-yl)ethyl)-2-oxobenzo[d]oxazol-3(2H)-yl)piperidine-2,6-dione] | – | – | 73.22 | – | 0.867 | 96.3 | 0.582
CCc1cc(Nc2ncc(Br)c(Nc3ccc4nc(C)ccc4c3P(C)(C)=O)n2)c(OC)cc1N1CCC(N2CCN(CC3CN(c4ccc5c(c4)oc(=O)n5C4CCC(=O)NC4=O)C3)CC2)CC1 (stereo not shown) [Example 537, 3-(6-(3-((4-(1-(4-((5-bromo-4-((5-(dimethylphosphoryl)-2-methylquinolin-6-yl)amino)pyrimidin-2-yl)amino)-2-ethyl-5-methoxyphenyl)piperidin-4-yl)piperazin-1-yl)methyl)azetidin-1-yl)-2-oxobenzo[d]oxazol-3(2H)-yl)piperidine-2,6-dione] | – | – | 65.01 | – | 0.934 | 94 | 0.223
CCc1cnc2c(P(C)(C)=O)c(Nc3nc(Nc4cc(CC)c(N5CCC(N6CCN(C(=O)[C@@H]7CCN(c8cc(F)c([C@H]9CCC(=O)NC9=O)c(F)c8)C7)CC6)CC5)cc4OC)ncc3Br)ccc2n1 [Example 538, (R)-3-(4-((R)-3-(4-(1-(4-((5-bromo-4-((5-(dimethylphosphoryl)-2-ethylquinoxalin-6-yl)amino)pyrimidin-2-yl)amino)-2-ethyl-5-methoxyphenyl)piperidin-4-yl)piperazine-1-carbonyl)pyrrolidin-1-yl)-2,6-difluorophenyl)piperidine-2,6-dione] | – | – | 80.57 | – | 16.2 | 89.6 | 2.39
CCc1ccc2c(P(C)(C)=O)c(Nc3nc(Nc4cc(C)c(N5CCC(N6CCN(C(=O)[C@@H]7CCN(c8cc(F)c([C@H]9CCC(=O)NC9=O)c(F)c8)C7)CC6)CC5)cc4OC)ncc3Br)ccc2n1 [Example 539, (R)-3-(4-((R)-3-(4-(1-(4-((5-bromo-4-((5-(dimethylphosphoryl)-2-ethylquinolin-6-yl)amino)pyrimidin-2-yl)amino)-5-methoxy-2-methylphenyl)piperidin-4-yl)piperazine-1-carbonyl)pyrrolidin-1-yl)-2,6-difluorophenyl)piperidine-2,6-dione] | – | – | 84.42 | – | 6.44 | 94.1 | 1.09
